Results from ChEMBL document CHEMBL5724914, “Linking interpersonal differences in gut microbiota composition and drug biotransformation activity” (2024).

How the values were obtained:
[1] = (§1) The drug is tested on WLS-240 corresponding to human gut metagenome with ENA study accession number: PRJEB37062 and ENA sample accession number: ERS12561773 for biotransformation under anaerobic condition. The drug concentrations were measured over 9 timepoints collected between 0 and 24 hours of incubation by liquid-chromatography-coupled mass spectrometry (LC–MS); conditions: 2 µM
[2] = as §1, with “WLS-077” for “WLS-240”, “ERS12561750” for “ERS12561773”; conditions: 2 µM
[3] = as §1, with “WLS-073” for “WLS-240”, “ERS12561749” for “ERS12561773”; conditions: 2 µM
[4] = as §1, with “WLS-039” for “WLS-240”, “ERS12561746” for “ERS12561773”; conditions: 2 µM
[5] = as §1, with “WLS-010” for “WLS-240”, “ERS12561743” for “ERS12561773”; conditions: 2 µM
[6] = human gut metagenome, 24 h, 2 µM
[7] = human gut metagenome, 24 h, 2 µM; remark: listed apart in the source
[8] = human gut metagenome, 24 h, 2 µM; remark: listed apart in the source
[9] = human gut metagenome, 24 h, 2 µM; remark: listed apart in the source
[10] = human gut metagenome, 24 h, 2 µM; remark: listed apart in the source
[11] = human gut metagenome, 24 h, 2 µM; remark: listed apart in the source
[12] = human gut metagenome, 24 h, 2 µM; remark: listed apart in the source
[13] = human gut metagenome, 24 h, 2 µM; remark: listed apart in the source
[14] = human gut metagenome, 24 h, 2 µM; remark: listed apart in the source
[15] = as §1, with “Z-026” for “WLS-240”, “to” for “to human gut”, “ERS12561825” for “ERS12561773”; conditions: 2 µM
[16] = as §1, with “Z-025” for “WLS-240”, “rabbit” for “human”, “ERS12561824” for “ERS12561773”; conditions: 2 µM
[17] = as §1, with “Z-008” for “WLS-240”, “to” for “to human gut”, “ERS12561808” for “ERS12561773”; conditions: 2 µM
[18] = as §1, with “Z-007” for “WLS-240”, “rat” for “human”, “ERS12561807” for “ERS12561773”; conditions: 2 µM
[19] = as §1, with “Z-030” for “WLS-240”, “mouse” for “human”, “ERS12561829” for “ERS12561773”; conditions: 2 µM
[20] = as §1, with “Z-021” for “WLS-240”, “to” for “to human gut”, “ERS12561820” for “ERS12561773”; conditions: 2 µM
Note: call rule not given here.

| SMILES | Bacterial Biotransformation [1] | Bacterial Biotransformation [2] | Bacterial Biotransformation [3] | Bacterial Biotransformation [4] | Bacterial Biotransformation [5] | Bacterial Biotransformation [6] | Bacterial Biotransformation [7] | Bacterial Biotransformation [8] | Bacterial Biotransformation [9] | Bacterial Biotransformation [10] | Bacterial Biotransformation [11] | Bacterial Biotransformation [12] | Bacterial Biotransformation [13] | Bacterial Biotransformation [14] | Bacterial Biotransformation [15] | Bacterial Biotransformation [16] | Bacterial Biotransformation [17] | Bacterial Biotransformation [18] | Bacterial Biotransformation [19] | Bacterial Biotransformation [20] |
| --- | --- | --- | --- | --- | --- | --- | --- | --- | --- | --- | --- | --- | --- | --- | --- | --- | --- | --- | --- | --- |
| N[C@@H](Cc1ccc(N(CCCl)CCCl)cc1)C(=O)O | Compound NOT metabolized | Compound metabolized | Compound metabolized | Compound metabolized | Compound metabolized | Compound NOT metabolized | Compound NOT metabolized | Compound metabolized | Compound metabolized | Compound NOT metabolized | Compound NOT metabolized | Compound metabolized |  |  |  |  |  |  |  |  |
| CN(C)CCc1c[nH]c2ccc(CS(=O)(=O)N3CCCC3)cc12 [ALMOTRIPTAN] | Compound metabolized | Compound NOT metabolized | Compound NOT metabolized | Compound NOT metabolized | Compound NOT metabolized | Compound NOT metabolized | Compound NOT metabolized | Compound NOT metabolized | Compound NOT metabolized | Compound metabolized | Compound metabolized | Compound metabolized | Compound NOT metabolized | Compound metabolized |  |  |  |  |  |  |
| CCCCC(=O)O[C@]1(C(=O)CO)[C@@H](C)C[C@H]2[C@@H]3CCC4=CC(=O)C=C[C@]4(C)[C@@]3(F)[C@@H](O)C[C@@]21C [BETAMETHASONE VALERATE] | Compound metabolized | Compound metabolized | Compound NOT metabolized | Compound metabolized | Compound metabolized | Compound NOT metabolized | Compound metabolized | Compound metabolized | Compound NOT metabolized | Compound metabolized | Compound metabolized | Compound NOT metabolized | Compound NOT metabolized | Compound metabolized |  |  |  |  |  |  |
| Cc1nc(Nc2ncc(C(=O)Nc3c(C)cccc3Cl)s2)cc(N2CCN(CCO)CC2)n1 [DASATINIB ANHYDROUS] | Compound metabolized | Compound NOT metabolized | Compound metabolized | Compound metabolized | Compound metabolized | Compound NOT metabolized | Compound metabolized | Compound NOT metabolized | Compound NOT metabolized | Compound metabolized | Compound metabolized | Compound metabolized | Compound metabolized | Compound metabolized |  |  |  |  |  |  |
| CNCC[C@H](Oc1cccc2ccccc12)c1cccs1 [DULOXETINE] | Compound NOT metabolized | Compound NOT metabolized | Compound NOT metabolized | Compound NOT metabolized | Compound NOT metabolized | Compound NOT metabolized | Compound NOT metabolized | Compound NOT metabolized | Compound NOT metabolized | Compound metabolized | Compound metabolized | Compound NOT metabolized | Compound NOT metabolized | Compound metabolized |  |  |  |  |  |  |
| COCCCC/C(=N\OCCN)c1ccc(C(F)(F)F)cc1.O=C(O)/C=C\C(=O)O [FLUVOXAMINE MALEATE] | Compound NOT metabolized | Compound NOT metabolized | Compound NOT metabolized | Compound NOT metabolized | Compound NOT metabolized | Compound NOT metabolized | Compound metabolized | Compound NOT metabolized | Compound NOT metabolized | Compound metabolized | Compound metabolized | Compound NOT metabolized | Compound NOT metabolized | Compound NOT metabolized |  |  |  |  |  |  |
| CN1CCN(C2=Nc3ccccc3Oc3ccc(Cl)cc32)CC1.O=C(O)CCC(=O)O [LOXAPINE SUCCINATE] | Compound NOT metabolized | Compound NOT metabolized | Compound NOT metabolized | Compound NOT metabolized | Compound NOT metabolized | Compound NOT metabolized | Compound NOT metabolized | Compound NOT metabolized | Compound NOT metabolized | Compound NOT metabolized | Compound NOT metabolized | Compound NOT metabolized | Compound NOT metabolized | Compound NOT metabolized |  |  |  |  |  |  |
| N#Cc1ccc2c(c1)N(CCCN1CCC(O)CC1)c1ccccc1S2 [PERICIAZINE] | Compound metabolized | Compound NOT metabolized | Compound NOT metabolized | Compound NOT metabolized | Compound NOT metabolized | Compound metabolized | Compound metabolized | Compound NOT metabolized | Compound NOT metabolized | Compound metabolized | Compound metabolized | Compound metabolized | Compound metabolized | Compound metabolized |  |  |  |  |  |  |
| O=C1N=C([O-])NC1(c1ccccc1)c1ccccc1.[Na+] [PHENYTOIN SODIUM] | Compound metabolized | Compound NOT metabolized | Compound NOT metabolized | Compound NOT metabolized | Compound metabolized | Compound metabolized | Compound NOT metabolized | Compound metabolized | Compound NOT metabolized | Compound metabolized | Compound metabolized | Compound metabolized | Compound metabolized | Compound NOT metabolized | Compound NOT metabolized | Compound NOT metabolized | Compound NOT metabolized | Compound NOT metabolized |  |  |
| CNNCc1ccc(C(=O)NC(C)C)cc1 [PROCARBAZINE] | Compound metabolized | Compound NOT metabolized | Compound NOT metabolized | Compound NOT metabolized |  | Compound NOT metabolized | Compound NOT metabolized | Compound NOT metabolized | Compound NOT metabolized | Compound NOT metabolized | Compound metabolized | Compound metabolized | Compound metabolized | Compound NOT metabolized | Compound metabolized |  | Compound NOT metabolized |  |  |  |
| CN(C/C=C/C#CC(C)(C)C)Cc1cccc2ccccc12 [TERBINAFINE] | Compound NOT metabolized |  |  |  |  | Compound metabolized | Compound NOT metabolized | Compound NOT metabolized | Compound NOT metabolized | Compound metabolized | Compound NOT metabolized | Compound NOT metabolized | Compound NOT metabolized | Compound metabolized | Compound NOT metabolized |  | Compound NOT metabolized | Compound NOT metabolized | Compound NOT metabolized | Compound NOT metabolized |
